This is an account of results in ChEMBL document CHEMBL1821573, “A fast virtual screening approach to identify structurally diverse inhibitors of trypanothione reductase” (Bioorg Med Chem Lett, 2011).

SMILES strings stand for the structures.

The assay deals with Trypanothione reductase (Trypanosoma cruzi, UniProt P28593). The assay can be described thus: Inhibition of Trypanosoma cruzi TryR using trypanothione as substrate preincubated for 10 mins.
Chain of Trypanothione reductase (P28593 whole entry): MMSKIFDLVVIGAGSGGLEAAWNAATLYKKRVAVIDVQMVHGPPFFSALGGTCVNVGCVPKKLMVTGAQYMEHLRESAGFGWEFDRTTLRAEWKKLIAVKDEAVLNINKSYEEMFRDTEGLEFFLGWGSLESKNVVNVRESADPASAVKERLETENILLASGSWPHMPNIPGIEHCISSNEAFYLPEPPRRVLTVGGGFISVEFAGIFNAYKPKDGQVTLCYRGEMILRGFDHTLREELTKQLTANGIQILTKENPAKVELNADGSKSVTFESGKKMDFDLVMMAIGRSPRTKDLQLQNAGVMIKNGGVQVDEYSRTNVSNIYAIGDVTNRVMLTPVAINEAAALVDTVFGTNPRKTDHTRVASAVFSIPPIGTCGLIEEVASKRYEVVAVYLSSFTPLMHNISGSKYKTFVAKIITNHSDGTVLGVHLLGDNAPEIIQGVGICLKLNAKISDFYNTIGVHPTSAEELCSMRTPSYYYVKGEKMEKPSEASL
Take `CCn1c(-c2ccccc2)cnc1SCC(=O)Nc1sc2c(c1C#N)CCCC2`: affinity was put at a Ki of 13.1 µM.

Take `Cc1ccc2nc(Cc3ccc(NC(=O)C(C)Oc4ccccc4)cc3)[nH]c2c1` (centres undefined): the affinity corresponds to a Ki of 26.9 µM.

For `COCCn1c(-c2ccccc2)cnc1SCC(=O)CNc1ccc(S(=O)(=O)N2CCCCC2)cc1`, the Ki was found to be 11.1 µM.

For `CCn1c(-c2ccccc2)cnc1SCC(=O)Nc1ccc(C2CCCCC2)cc1`, the inhibition constant (Ki) was 5.7 µM.

For `O=C(CNc1ccc(S(=O)(=O)N2CCCCC2)cc1)CSc1ncc(-c2ccc(Cl)cc2)n1-c1ccccc1`, affinity was put at a Ki of 22.3 µM.

On to `Nc1ccc2[nH]c(CCCCCCCCc3nc4cc(N)ccc4[nH]3)nc2c1`, for which the affinity corresponds to a Ki of 10.6 µM.

With `N#Cc1c(NC(=O)CSc2nc(-c3ccc(Cl)cc3)c[nH]2)sc2c1CCCC2`, the Ki worked out at 9.3 µM.

On to `Cc1sc2ncn3c(SCC(=O)Nc4sc5c(c4C#N)CCCC5)nnc3c2c1C`, for which the Ki turned out to be 11.8 µM.

The molecule `Cc1ccc2[nH]c(Cc3ccc(NC(=O)CCc4nc5ccccc5[nH]4)cc3)nc2c1` displayed a Ki of 13.1 µM.

As usually defined, the Ki is the equilibrium dissociation constant of an inhibitor or competing ligand from its target.
